ChEMBL document CHEMBL1137339, “Improved therapeutic efficacy of doxorubicin through conjugation with a novel peptide drug delivery technology (Vectocell)” (J Med Chem, 2006)
pIC50: −log10 of the molar value. Non-standard residues stand in square brackets, D forms with d. Residues, ends and D or L forms follow the SMILES beside them. ξ: configuration not given here. *: point of attachment. X1 = COc1cccc2c1C(=O)c1c(O)c3c(c(O)c1C2=O)C[C@@](O)(C(=O)COC(=O)CCCN1C(=O)CC(*)C1=O)C[C@@H]3O[C@H]1C[C@H](N)[C@H](O)[C@H](C)O1; X4 = COc1cccc2c1C(=O)c1c(O)c3c(c(O)c1C2=O)C[C@@](O)(C(=O)CO)C[C@@H]3O[C@H]1C[C@H](NC(=O)CCCN2C(=O)CC(*)C2=O)[C@H](O)[C@H](C)O1; ξC = NC(CS)C(=O)O

Assays:
HCT-116 [1] = test: Cytotoxicity against HCT116 cell line xenografted in NMRI nu/nu mouse at 15 umol/kg relative to control; format: functional, Homo sapiens
NCI/ADR-RES [2] = test: Cytotoxicity against doxorubicin-resistant MCF7/Adr cell line by WST1 assay; format: functional, cell-based; conditions: Homo sapiens
HCT-15 [3] = test: Cytotoxicity against doxorubicin-resistant HCT15 cell line in presence of verapamil by WST1 assay; format: functional, cell-based; conditions: Homo sapiens
HCT-116 [4] = test: Cytotoxicity against doxorubicin-sensitive HCT116 cell line in presence of verapamil by WST1 assay; format: functional, cell-based; conditions: Homo sapiens
HCT-116 [5] = test: Cytotoxicity against doxorubicin-sensitive HCT116 cell line by WST1 assay; format: functional, cell-based; conditions: Homo sapiens
MCF7 = test: Cytotoxicity against doxorubicin-sensitive MCF7/6 cell line by WST1 assay; format: functional, cell-based; conditions: Homo sapiens
MES-SA/Dx5 [6] = test: Cytotoxicity against MES-SA/dx5 cell line by WST1 assay; format: functional, cell-based; conditions: Homo sapiens
MES-SA/Dx5 [7] = test: Cytotoxicity against doxorubicin-resistant MES-SA/dx5 cell line in presence of verapamil by WST1 assay; format: functional, cell-based; conditions: Homo sapiens
HCT-15 [8] = test: Cytotoxicity against HCT15 cell line by WST1 assay; format: functional, cell-based; conditions: Homo sapiens
NCI/ADR-RES [9] = test: Cytotoxicity against doxorubicin-resistant MCF7/Adr cell line in presence of verapamil by WST1 assay; format: functional, cell-based; conditions: Homo sapiens
MDA-MB-231 [10] = test: Cytotoxicity against MDA-MB-231 cell line xenografted in NMRI nu/nu mouse at 10 umol/kg relative to control; format: functional, Homo sapiens
MDA-MB-231 [11] = test: Cytotoxicity against MDA-MB-231 cell line xenografted in NMRI nu/nu mouse at 6 umol/kg relative to control; format: functional, Homo sapiens
MDA-MB-231 [12] = test: Cytotoxicity against MDA-MB-231 cell line xenografted in NMRI nu/nu mouse at 8 umol/kg relative to control; format: functional, Homo sapiens

| Molecule | Activity (HCT-116 [1]) | pIC50 (NCI/ADR-RES [2]) | pIC50 (HCT-116 [5]) | pIC50 (MCF7) | other results |
| --- | --- | --- | --- | --- | --- |
| COc1cccc2c1C(=O)c1c(O)c3c(c(O)c1C2=O)C[C@@](O)(C(=O)CO)C[C@@H]3O[C@H]1C[C@H](NC(=O)CCCN2C(=O)CC(SC[C@H](N)C(=O)N[C@H](C(=O)N[C@@H](CCCCN)C(=O)N[C@@H](CCCN=C(N)N)C(=O)NCC(=O)N[C@@H](CC(C)C)C(=O)N[C@@H](CCCCN)C(=O)N[C@@H](CC(C)C)C(=O)N[C@@H](CCCN=C(N)N)C(=O)N[C@@H](Cc3c[nH]cn3)C(=O)N[C@H](C(=O)N[C@@H](CCCN=C(N)N)C(=O)N3CCC[C@H]3C(=O)N[C@@H](CCCN=C(N)N)C(=O)N[C@H](C(=O)N[C@H](C(=O)N[C@@H](CCCN=C(N)N)C(=O)N[C@@H](CCSC)C(=O)N[C@@H](CC(=O)O)C(=O)N[C@H](C(=O)O)C(C)C)[C@@H](C)O)C(C)C)C(C)C)C(C)C)C2=O)[C@H](O)[C@H](C)O1.O=C(O)C(F)(F)F (some centres undefined) (H-C(X4)VKRGLKLRHVRPRVTRMDV-OH) | 79.7% |  |  |  |  |
| COc1cccc2c1C(=O)c1c(O)c3c(c(O)c1C2=O)C[C@@](O)(C(=O)COC(=O)CCCN1C(=O)CC(SC[C@H](N)C(=O)N[C@H](C(=O)N[C@@H](CCCCN)C(=O)N[C@@H](CCCN=C(N)N)C(=O)NCC(=O)N[C@@H](CC(C)C)C(=O)N[C@@H](CCCCN)C(=O)N[C@@H](CC(C)C)C(=O)N[C@@H](CCCN=C(N)N)C(=O)N[C@@H](Cc2c[nH]cn2)C(=O)N[C@H](C(=O)N[C@@H](CCCN=C(N)N)C(=O)N2CCC[C@H]2C(=O)N[C@@H](CCCN=C(N)N)C(=O)N[C@H](C(=O)N[C@H](C(=O)N[C@@H](CCCN=C(N)N)C(=O)N[C@@H](CCSC)C(=O)N[C@@H](CC(=O)O)C(=O)N[C@H](C(=O)O)C(C)C)[C@@H](C)O)C(C)C)C(C)C)C(C)C)C1=O)C[C@@H]3O[C@H]1C[C@H](N)[C@H](O)[C@H](C)O1 (some centres undefined) (H-C(X1)VKRGLKLRHVRPRVTRMDV-OH) |  | 3.88 | 5.22 | 4.54 | pIC50 (HCT-15 [3]): 4.96; pIC50 (HCT-116 [4]): 5.40; pIC50 (MES-SA/Dx5 [6]): 4.09; pIC50 (MES-SA/Dx5 [7]): 4.66; pIC50 (HCT-15 [8]): 4.30; pIC50 (NCI/ADR-RES [9]): 4.28 |
| COc1cccc2c1C(=O)c1c(O)c3c(c(O)c1C2=O)C[C@@](O)(C(=O)CO)C[C@@H]3O[C@H]1C[C@H](NC(=O)CCCN2C(=O)CC(SCC(N)C(=O)N[C@@H](CO)C(=O)N[C@@H](CCCN=C(N)N)C(=O)N[C@@H](CCCN=C(N)N)C(=O)N[C@@H](C)C(=O)N[C@@H](CCCN=C(N)N)C(=O)N[C@@H](CCCN=C(N)N)C(=O)N[C@@H](CO)C(=O)N3CCC[C@H]3C(=O)N[C@@H](CCCN=C(N)N)C(=O)N[C@@H](Cc3c[nH]cn3)C(=O)N[C@@H](CC(C)C)C(=O)NCC(=O)N[C@@H](CO)C(=O)NCC(=O)N[C@@H](CS)C(=O)O)C2=O)[C@H](O)[C@H](C)O1 (some centres undefined) (H-[ξC](X4)SRRARRSPRHLGSGC-OH) |  | 3.20 | 3.70 | 3.94 |  |
| H-CVKRGLKLRHVRPRVTRMDV-OH |  | < 3.00 | < 3.00 |  |  |
| COc1cccc2c1C(=O)c1c(O)c3c(c(O)c1C2=O)C[C@@](O)(C(=O)COC(=O)CCCN1C(=O)CC(SC[C@H](N)C(=O)N[C@H](C(=O)N[C@@H](CCCCN)C(=O)N[C@@H](CCCN=C(N)N)C(=O)NCC(=O)N[C@@H](CC(C)C)C(=O)N[C@@H](CCCCN)C(=O)N[C@@H](CC(C)C)C(=O)N[C@@H](CCCN=C(N)N)C(=O)N[C@@H](Cc2c[nH]cn2)C(=O)N[C@H](C(=O)N[C@@H](CCCN=C(N)N)C(=O)N2CCC[C@H]2C(=O)N[C@@H](CCCN=C(N)N)C(=O)N[C@H](C(=O)N[C@H](C(=O)N[C@@H](CCCN=C(N)N)C(=O)N[C@@H](CCSC)C(=O)N[C@@H](CC(=O)O)C(=O)N[C@H](C(=O)O)C(C)C)[C@@H](C)O)C(C)C)C(C)C)C(C)C)C1=O)C[C@@H]3O[C@H]1C[C@H](N)[C@H](O)[C@H](C)O1.O=C(O)C(F)(F)F (some centres undefined) (H-C(X1)VKRGLKLRHVRPRVTRMDV-OH) | 29.5% |  |  |  | Activity (MDA-MB-231 [10]): 16.4%; Activity (MDA-MB-231 [11]): 43.4%; Activity (MDA-MB-231 [12]): 27.6% |
